Laboratory results: ChEMBL document CHEMBL1201862, “PubChem BioAssay data set” (2004)
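96-well plates; 48 h exposure; 5 concentrations. Endpoints by linear interpolation between flanking doses. Not reached: highest tested concentration assigned. GI50 marks 50% less growth.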 Activity calls are given as the source filed them. Cut-off read from the data, not from the text of the source: active = GI50 up to about 1.1 µM and inactive = higher.

Columns and labels:
Test in all cases: NCI tumour cell line growth inhibition, 48 h
[1] = tested on: HCT-15
[2] = tested on: UACC-257
[3] = tested on: NCI-H23
[4] = tested on: MDA-N
[5] = tested on: OVCAR-5
[6] = tested on: HT-29
[7] = tested on: SF-268
[8] = tested on: MOLT-4
[9] = tested on: SF-539
[10] = tested on: TK-10
[11] = tested on: NCI-H522
[12] = tested on: SN12C
[13] = tested on: MDA-MB-231
[14] = tested on: OVCAR-4
[15] = tested on: ACHN
[16] = tested on: HL-60
[17] = tested on: COLO 205
[18] = tested on: CAKI-1
[19] = tested on: K562
[20] = tested on: UACC-62

| SMILES | GI50 [1] | GI50 [2] | GI50 [3] | GI50 [4] | GI50 [5] | GI50 [6] | GI50 [7] | GI50 [8] | GI50 [9] | GI50 [10] | GI50 [11] | GI50 [12] | GI50 [13] | GI50 [14] | GI50 [15] | GI50 [16] | GI50 [17] | GI50 [18] | GI50 [19] | GI50 [20] |
| --- | --- | --- | --- | --- | --- | --- | --- | --- | --- | --- | --- | --- | --- | --- | --- | --- | --- | --- | --- | --- |
| CC(C)(C)NC(=O)/C(=C\Sc1ccccc1)c1ccc2c(c1)OCO2 | 30.8 µM | 25.4 µM (inactive) | 35.3 µM (inactive) | 22.8 µM (inactive) | 30.6 µM (inactive) | 17.9 µM (inactive) | 16.2 µM (inactive) | 21.9 µM (inactive) | 35.3 µM (inactive) | 44.8 µM (inactive) | 17.9 µM (inactive) | 26.7 µM (inactive) | 21.8 µM (inactive) | 51.3 µM (inactive) | 36.9 µM (inactive) | 18.7 µM (inactive) | 22.4 µM (inactive) | 38.4 µM (inactive) | 43.6 µM (inactive) | 19.8 µM (inactive) |
| N#Cc1ncn(-c2ccccc2)c1N | > 100 µM | > 100 µM (inactive) | > 100 µM (inactive) | > 100 µM (inactive) | > 100 µM (inactive) | > 100 µM (inactive) | > 100 µM (inactive) | > 100 µM (inactive) | > 100 µM (inactive) | > 100 µM (inactive) | > 100 µM (inactive) | > 100 µM (inactive) | > 100 µM (inactive) | > 100 µM (inactive) | > 100 µM (inactive) | > 100 µM (inactive) | > 100 µM (inactive) | > 100 µM (inactive) | > 100 µM (inactive) | > 100 µM (inactive) |
| N#Cc1c(-c2cccc(Cl)c2)cc(-c2ccc(Cl)cc2)nc1N | 17.1 µM | 15.3 µM (inactive) | 17.5 µM (inactive) | 20 µM (inactive) | 21.7 µM (inactive) | 24.3 µM (inactive) | 18.5 µM (inactive) | 19 µM (inactive) | 17.8 µM (inactive) | 19.7 µM (inactive) | 15.1 µM (inactive) | 17.3 µM (inactive) | 16.1 µM (inactive) | 15.7 µM (inactive) | 17.7 µM (inactive) | 38.1 µM (inactive) | 14.6 µM (inactive) | 26.1 µM (inactive) | 34.4 µM (inactive) | 16.5 µM (inactive) |
